Values after ≈ are worked out from the molar mass of the structure shown.
Assays:
[1] = molecular target: Beta-1 adrenergic receptor (Homo sapiens) (UniProt P08588); experiment: Binding affinity to human beta1 adrenergic receptor assessed as inhibition of control specific binding at 10 uM
[2] = molecular target: Transient receptor potential cation channel subfamily V member 4 (Homo sapiens, UniProt Q9HBA0); experiment: Antagonist activity at human TRPV4 expressed in HEK293 cells assessed as inhibition of 20% hypotonic solution-induced Ca2+ influx; format: cell-based
[3] = molecular target: C-X-C chemokine receptor type 2 (Homo sapiens) (UniProt P25025); experiment: Binding affinity to human CXCR2 receptor assessed as inhibition of control specific binding at 10 uM
[4] = molecular target: Kappa-type opioid receptor (Homo sapiens) (UniProt P41145); experiment: Binding affinity to human kappa opioid receptor assessed as inhibition of control specific binding at 10 uM
[5] = molecular target: Sodium-dependent dopamine transporter (Homo sapiens) (UniProt Q01959); experiment: Binding affinity to human DA transporter assessed as inhibition of control specific binding at 10 uM
Homo sapiens [6] = species: Homo sapiens; experiment: Binding affinity to SST receptor (unknown origin) assessed as inhibition of control specific binding at 10 uM
[7] = molecular target: Transient receptor potential cation channel subfamily V member 3 (Homo sapiens, UniProt Q8NET8); experiment: Antagonist activity at human TRPV3 receptor expressed in HEK293 cells assessed as inhibition of capsaicin-stimulated calcium flux after 10 mins; format: cell-based
[8] = Solubility of the compound at pH 7.4; format: physicochemical; conditions: buffer
[9] = molecular target: Melatonin receptor type 1A (Homo sapiens) (UniProt P48039); experiment: Binding affinity to human MT1 receptor assessed as inhibition of control specific binding at 10 uM
[10] = molecular target: Mu-type opioid receptor (Homo sapiens) (UniProt P35372); experiment: Binding affinity to human mu opioid receptor agonist site assessed as inhibition of control specific binding at 10 uM
[11] = molecular target: Substance-K receptor (Homo sapiens) (UniProt P21452); experiment: Binding affinity to human NK2 receptor assessed as inhibition of control specific binding at 10 uM
[12] = molecular target: Thromboxane A2 receptor (Homo sapiens) (UniProt P21731); experiment: Binding affinity to human TP receptor assessed as inhibition of control specific binding at 10 uM
Homo sapiens [13] = species: Homo sapiens; experiment: Binding affinity to sodium channel site-2 (unknown origin) assessed as inhibition of control specific binding at 10 uM
[14] = molecular target: 5-hydroxytryptamine receptor 6 (Homo sapiens) (UniProt P50406); experiment: Binding affinity to human 5-HT6 receptor assessed as inhibition of control specific binding at 10 uM
[15] = molecular target: 5-hydroxytryptamine receptor 7 (Homo sapiens) (UniProt P34969); experiment: Binding affinity to human 5-HT7 receptor assessed as inhibition of control specific binding at 10 uM
[16] = molecular target: Vasopressin V1a receptor (Homo sapiens) (UniProt P37288); experiment: Binding affinity to human V1a receptor assessed as inhibition of control specific binding at 10 uM
[17] = molecular target: 5-hydroxytryptamine receptor 5A (Homo sapiens) (UniProt P47898); experiment: Binding affinity to human 5-HT5A receptor assessed as inhibition of control specific binding at 10 uM
[18] = molecular target: Neurotensin receptor type 1 (Homo sapiens) (UniProt P30989); experiment: Binding affinity to human NT1 receptor assessed as inhibition of control specific binding at 10 uM
[19] = Clearance in Wistar rat at 1.40 mg/kg, iv; format: ADME, organism-based; conditions: in vivo, 1.4 mg/kg
[20] = molecular target: Adrenergic receptor alpha-2 (Homo sapiens) (UniProt P08913+P18825+P18089); experiment: Binding affinity to non-selective alpha2 adrenergic receptor (unknown origin) assessed as inhibition of control specific binding at 10 uM; format: protein assay
[21] = molecular target: 5-hydroxytryptamine receptor 2A (Homo sapiens) (UniProt P28223); experiment: Binding affinity to human 5-HT2A receptor assessed as inhibition of control specific binding at 10 uM
[22] = molecular target: Adenosine receptor A2a (Homo sapiens) (UniProt P29274); experiment: Binding affinity to human adenosine A2A receptor assessed as inhibition of control specific binding at 10 uM
[23] = molecular target: Delta-type opioid receptor (Homo sapiens) (UniProt P41143); experiment: Binding affinity to human detla2 opioid receptor assessed as inhibition of control specific binding at 10 uM
[24] = molecular target: Transient receptor potential cation channel subfamily V member 1 (Homo sapiens, UniProt Q8NER1); experiment: Antagonist activity at human TRPV1 receptor expressed in HEK293 cells assessed as inhibition of capsaicin-stimulated calcium flux after 10 mins; format: cell-based
[25] = Cmax in Wistar rat at 32.50 mg/kg, ip; format: ADME, organism-based; design: dose 32.5 mg/kg, route intraperitoneal; conditions: in vivo, 32.5 mg/kg
[26] = molecular target: Adrenergic receptor alpha-1 (Homo sapiens) (UniProt P35348+P25100+P35368); experiment: Binding affinity to non-selective alpha1 adrenergic receptor (unknown origin) assessed as inhibition of control specific binding at 10 uM; format: protein assay
Homo sapiens [27] = species: Homo sapiens; experiment: Binding affinity to SK+ calcium channel (unknown origin) assessed as inhibition of control specific binding at 10 uM
[28] = molecular target: Transient receptor potential cation channel subfamily V member 4 (Rattus norvegicus, UniProt Q9ERZ8); experiment: Antagonist activity at rat TRPV4 receptor expressed in HEK293 cells assessed as inhibition of EC80 of 4alpha-PDD-stimulated calcium flux after 10 mins; format: cell-based
[29] = AUC (infinity) in Wistar rat at 1.40 mg/kg, iv; format: ADME, organism-based; design: dose 1.4 mg/kg, time infinity, route intravenous; conditions: in vivo, 1.4 mg/kg
[30] = molecular target: 5-hydroxytryptamine receptor 3A (Homo sapiens) (UniProt P46098); experiment: Binding affinity to human 5-HT3 receptor assessed as inhibition of control specific binding at 10 uM
[31] = molecular target: 5-hydroxytryptamine receptor 1B (Homo sapiens) (UniProt P28222); experiment: Binding affinity to human 5-HT1B receptor assessed as inhibition of control specific binding at 10 uM
[32] = molecular target: Transient receptor potential cation channel subfamily M member 8 (Homo sapiens, UniProt Q7Z2W7); experiment: Antagonist activity at human TRPM8 receptor expressed in HEK293 cells assessed as inhibition of menthol-stimulated calcium flux after 10 mins; format: cell-based
[33] = molecular target: Type-1 angiotensin II receptor (Homo sapiens) (UniProt P30556); experiment: Binding affinity to human AT1 receptor assessed as inhibition of control specific binding at 10 uM
[34] = AUC (infinity) in Wistar rat at 29.73 mg/kg, po; format: ADME, organism-based; design: dose 29.73 mg/kg, time infinity, route oral; conditions: in vivo
Homo sapiens [35] = species: Homo sapiens; experiment: Binding affinity to chloride channel (unknown origin) assessed as inhibition of control specific binding at 10 uM
[36] = molecular target: C-C chemokine receptor type 1 (Homo sapiens) (UniProt P32246); experiment: Binding affinity to human CCR1 receptor assessed as inhibition of control specific binding at 10 uM
C-C chemokine receptor type 1 (Homo sapiens), sequence (P32246 whole entry): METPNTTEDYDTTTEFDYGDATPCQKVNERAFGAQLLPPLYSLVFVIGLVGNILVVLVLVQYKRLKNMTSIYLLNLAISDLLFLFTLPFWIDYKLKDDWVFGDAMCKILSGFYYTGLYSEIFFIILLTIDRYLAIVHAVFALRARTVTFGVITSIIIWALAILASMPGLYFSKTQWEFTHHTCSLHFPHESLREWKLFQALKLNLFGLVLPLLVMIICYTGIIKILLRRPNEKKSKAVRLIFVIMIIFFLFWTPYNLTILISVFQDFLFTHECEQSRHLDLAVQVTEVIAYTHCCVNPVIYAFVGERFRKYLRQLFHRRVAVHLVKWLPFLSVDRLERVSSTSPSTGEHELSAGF

C-X-C chemokine receptor type 2 (Homo sapiens), sequence (P25025 whole entry): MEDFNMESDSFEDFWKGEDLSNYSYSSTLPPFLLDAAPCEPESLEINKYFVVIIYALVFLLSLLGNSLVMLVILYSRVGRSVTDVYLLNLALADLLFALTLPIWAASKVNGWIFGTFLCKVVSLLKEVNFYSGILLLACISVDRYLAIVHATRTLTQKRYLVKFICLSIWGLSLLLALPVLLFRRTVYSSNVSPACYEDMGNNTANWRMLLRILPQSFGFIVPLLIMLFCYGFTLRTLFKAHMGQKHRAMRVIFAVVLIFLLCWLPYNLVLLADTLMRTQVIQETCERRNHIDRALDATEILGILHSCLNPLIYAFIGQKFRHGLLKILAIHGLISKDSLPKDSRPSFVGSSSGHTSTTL
Sodium-dependent dopamine transporter (Homo sapiens), sequence (Q01959 whole entry): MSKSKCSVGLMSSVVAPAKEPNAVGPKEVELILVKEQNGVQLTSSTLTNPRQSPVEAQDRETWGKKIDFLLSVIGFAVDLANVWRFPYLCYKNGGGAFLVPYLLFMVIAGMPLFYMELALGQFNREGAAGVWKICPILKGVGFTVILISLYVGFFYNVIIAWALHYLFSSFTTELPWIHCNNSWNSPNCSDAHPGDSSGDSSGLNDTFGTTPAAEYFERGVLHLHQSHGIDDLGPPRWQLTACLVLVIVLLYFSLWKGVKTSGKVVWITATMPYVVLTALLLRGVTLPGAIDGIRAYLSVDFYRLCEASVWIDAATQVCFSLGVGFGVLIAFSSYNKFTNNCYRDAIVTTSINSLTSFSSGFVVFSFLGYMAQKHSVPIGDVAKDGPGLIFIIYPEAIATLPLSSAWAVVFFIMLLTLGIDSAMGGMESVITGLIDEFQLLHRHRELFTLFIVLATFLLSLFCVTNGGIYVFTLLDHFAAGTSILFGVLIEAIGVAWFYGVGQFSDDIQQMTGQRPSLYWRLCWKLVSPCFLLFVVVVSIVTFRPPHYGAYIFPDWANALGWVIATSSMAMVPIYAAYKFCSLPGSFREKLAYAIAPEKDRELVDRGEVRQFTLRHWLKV
Melatonin receptor type 1A (Homo sapiens), sequence (P48039 whole entry): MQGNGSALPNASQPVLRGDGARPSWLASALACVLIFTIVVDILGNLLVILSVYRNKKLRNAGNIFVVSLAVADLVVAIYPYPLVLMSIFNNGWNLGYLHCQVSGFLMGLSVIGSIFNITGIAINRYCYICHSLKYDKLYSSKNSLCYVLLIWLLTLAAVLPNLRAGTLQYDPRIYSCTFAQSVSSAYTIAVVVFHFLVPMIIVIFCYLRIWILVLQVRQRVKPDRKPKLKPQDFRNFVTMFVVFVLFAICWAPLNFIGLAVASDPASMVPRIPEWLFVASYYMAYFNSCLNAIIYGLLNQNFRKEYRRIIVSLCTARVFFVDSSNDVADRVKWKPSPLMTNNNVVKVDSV
Beta-1 adrenergic receptor (Homo sapiens), sequence (P08588 whole entry, looked up): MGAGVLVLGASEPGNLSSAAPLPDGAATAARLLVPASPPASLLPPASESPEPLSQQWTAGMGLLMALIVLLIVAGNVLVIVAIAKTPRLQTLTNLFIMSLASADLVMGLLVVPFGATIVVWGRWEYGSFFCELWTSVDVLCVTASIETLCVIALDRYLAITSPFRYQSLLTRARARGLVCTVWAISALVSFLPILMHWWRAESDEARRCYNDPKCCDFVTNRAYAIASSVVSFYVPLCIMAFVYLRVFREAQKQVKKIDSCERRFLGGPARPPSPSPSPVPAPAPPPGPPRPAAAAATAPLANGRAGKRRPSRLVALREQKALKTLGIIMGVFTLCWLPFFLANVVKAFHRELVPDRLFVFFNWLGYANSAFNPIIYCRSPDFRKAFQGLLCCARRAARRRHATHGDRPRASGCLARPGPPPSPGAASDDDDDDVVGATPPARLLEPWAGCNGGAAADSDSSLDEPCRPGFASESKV
Type-1 angiotensin II receptor (Homo sapiens), sequence (P30556 whole entry): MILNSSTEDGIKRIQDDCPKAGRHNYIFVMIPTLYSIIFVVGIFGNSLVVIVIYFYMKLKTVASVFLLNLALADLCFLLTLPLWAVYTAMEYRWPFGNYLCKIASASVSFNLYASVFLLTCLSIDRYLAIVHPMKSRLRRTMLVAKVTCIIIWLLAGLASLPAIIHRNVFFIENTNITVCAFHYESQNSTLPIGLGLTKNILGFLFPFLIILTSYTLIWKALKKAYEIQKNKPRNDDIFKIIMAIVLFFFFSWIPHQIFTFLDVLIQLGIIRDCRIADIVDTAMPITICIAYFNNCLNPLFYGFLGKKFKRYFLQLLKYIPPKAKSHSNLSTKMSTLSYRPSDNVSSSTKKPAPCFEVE
Transient receptor potential cation channel subfamily V member 4 (Homo sapiens, UniProt Q9HBA0), sequence (Q9HBA0 whole entry): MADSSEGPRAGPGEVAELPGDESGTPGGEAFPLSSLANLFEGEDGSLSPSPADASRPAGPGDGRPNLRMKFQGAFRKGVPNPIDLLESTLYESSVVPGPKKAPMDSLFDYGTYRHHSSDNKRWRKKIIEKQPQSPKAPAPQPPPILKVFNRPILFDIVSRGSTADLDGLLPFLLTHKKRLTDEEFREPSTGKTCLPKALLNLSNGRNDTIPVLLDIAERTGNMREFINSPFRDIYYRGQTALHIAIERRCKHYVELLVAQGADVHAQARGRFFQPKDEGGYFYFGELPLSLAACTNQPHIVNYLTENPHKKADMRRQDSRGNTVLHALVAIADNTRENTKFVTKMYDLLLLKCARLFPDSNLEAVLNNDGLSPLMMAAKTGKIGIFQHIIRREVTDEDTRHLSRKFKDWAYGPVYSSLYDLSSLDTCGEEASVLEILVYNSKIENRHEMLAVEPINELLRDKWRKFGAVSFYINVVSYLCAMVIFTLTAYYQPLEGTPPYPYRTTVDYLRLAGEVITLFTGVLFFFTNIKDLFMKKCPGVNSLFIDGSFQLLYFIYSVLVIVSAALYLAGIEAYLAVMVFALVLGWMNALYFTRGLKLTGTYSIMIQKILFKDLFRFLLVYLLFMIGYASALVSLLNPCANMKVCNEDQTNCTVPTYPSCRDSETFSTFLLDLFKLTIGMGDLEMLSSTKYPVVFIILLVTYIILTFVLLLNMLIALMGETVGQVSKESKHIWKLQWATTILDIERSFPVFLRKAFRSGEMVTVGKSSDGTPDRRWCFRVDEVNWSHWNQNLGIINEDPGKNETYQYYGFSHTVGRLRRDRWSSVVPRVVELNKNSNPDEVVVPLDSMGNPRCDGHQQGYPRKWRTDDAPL
5-hydroxytryptamine receptor 5A (Homo sapiens), sequence (P47898 whole entry): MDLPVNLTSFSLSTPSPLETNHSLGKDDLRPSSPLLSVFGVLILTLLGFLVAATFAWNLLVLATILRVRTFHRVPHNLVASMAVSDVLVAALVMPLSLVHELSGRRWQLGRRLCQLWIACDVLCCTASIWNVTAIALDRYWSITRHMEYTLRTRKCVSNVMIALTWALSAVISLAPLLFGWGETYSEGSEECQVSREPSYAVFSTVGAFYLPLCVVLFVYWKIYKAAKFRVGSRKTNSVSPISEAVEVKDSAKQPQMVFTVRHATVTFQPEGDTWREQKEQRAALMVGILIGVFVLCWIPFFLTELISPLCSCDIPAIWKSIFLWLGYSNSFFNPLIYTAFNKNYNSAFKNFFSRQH
Transient receptor potential cation channel subfamily V member 3, sequence (Q8NET8 whole entry): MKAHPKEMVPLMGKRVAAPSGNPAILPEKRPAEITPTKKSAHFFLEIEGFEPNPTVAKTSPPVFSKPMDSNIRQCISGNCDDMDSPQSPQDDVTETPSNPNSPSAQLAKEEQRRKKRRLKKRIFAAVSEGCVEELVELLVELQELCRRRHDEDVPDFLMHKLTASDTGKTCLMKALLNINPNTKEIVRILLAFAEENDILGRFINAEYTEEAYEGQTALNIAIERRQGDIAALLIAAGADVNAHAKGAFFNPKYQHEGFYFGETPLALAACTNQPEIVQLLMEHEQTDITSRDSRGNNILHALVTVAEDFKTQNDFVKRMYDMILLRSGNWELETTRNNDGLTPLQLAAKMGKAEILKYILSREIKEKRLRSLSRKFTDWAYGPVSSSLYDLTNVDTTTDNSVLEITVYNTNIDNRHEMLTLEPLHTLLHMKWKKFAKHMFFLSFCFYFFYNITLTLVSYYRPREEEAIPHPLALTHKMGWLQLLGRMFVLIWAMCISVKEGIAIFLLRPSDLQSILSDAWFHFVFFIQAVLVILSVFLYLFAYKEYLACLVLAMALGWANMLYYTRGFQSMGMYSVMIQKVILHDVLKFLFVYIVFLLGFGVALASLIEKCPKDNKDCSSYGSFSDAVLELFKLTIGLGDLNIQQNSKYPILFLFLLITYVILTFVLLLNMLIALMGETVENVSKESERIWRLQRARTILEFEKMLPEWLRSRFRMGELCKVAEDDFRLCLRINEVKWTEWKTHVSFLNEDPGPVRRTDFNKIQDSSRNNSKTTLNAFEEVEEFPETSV
Neurotensin receptor type 1 (Homo sapiens), sequence (P30989 whole entry): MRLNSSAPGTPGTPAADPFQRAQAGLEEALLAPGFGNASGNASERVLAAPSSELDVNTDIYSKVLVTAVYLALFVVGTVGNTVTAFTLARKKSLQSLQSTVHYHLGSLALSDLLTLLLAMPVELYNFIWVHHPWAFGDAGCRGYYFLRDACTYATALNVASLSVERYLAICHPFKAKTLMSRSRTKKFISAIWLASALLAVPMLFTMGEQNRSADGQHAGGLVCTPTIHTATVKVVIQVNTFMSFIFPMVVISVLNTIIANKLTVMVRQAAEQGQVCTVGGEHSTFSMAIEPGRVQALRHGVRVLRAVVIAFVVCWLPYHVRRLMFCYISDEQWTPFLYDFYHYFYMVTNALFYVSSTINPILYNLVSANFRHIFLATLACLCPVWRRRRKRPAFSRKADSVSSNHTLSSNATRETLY

Molecule `CC(C)N1CCN(S(=O)(=O)c2ccc(NC(=O)c3ccc(C(F)(F)F)cc3[N+](=O)[O-])cc2)CC1` has an inhibition [1] of 4%, an IC50 [2] of 0.57 µM and an inhibition [3] of -4%. For the same molecule, the inhibition [4] was 3%, the inhibition [5] was 10% and the inhibition (Homo sapiens [6]) was -1%. It also gave an IC50 [7] of over 30 µM, a solubility [8] of 45.5 µM (≈ 22.8 µg/mL) and an inhibition [9] of 5%. The inhibition [10] was 9%, the inhibition [11] was 15% and the inhibition [12] was -6%. The inhibition (Homo sapiens [13]) was 17%, the inhibition [14] was -2% and the inhibition [15] was -5%. It also gave an inhibition [16] of 1%, an inhibition [17] of 0% and an inhibition [18] of -6%. For the same molecule, the clearance [19] was 23.7 mL/min/kg, the inhibition [20] was -1% and the inhibition [21] was 28%. It also gave an inhibition [22] of -7%, an inhibition [23] of 6% and an IC50 [24] of over 10 µM. For the same molecule, the Cmax [25] was 10600 ng/mL, the inhibition [26] was 6% and the inhibition (Homo sapiens [27]) was -4%. For the same molecule, the IC50 [28] was 0.66 µM, the AUC(0-inf) [29] was 1010 ng·h/mL and the inhibition [30] was -3%. The inhibition [31] was -2%, the IC50 [32] was 30 µM and the inhibition [33] was -6%. It also gave an AUC(0-inf) [34] of 10100 ng·h/mL, an inhibition (Homo sapiens [35]) of 24% and an inhibition [36] of -5%.

Reference: ChEMBL document CHEMBL3612012, “Identification of orally-bioavailable antagonists of the TRPV4 ion-channel” (Bioorg Med Chem Lett, 2015)
